Data on 22 compounds can be found in US7608633B2, “Heteroaryl-substituted acetone derivatives as inhibitors of phospholipase A2” (Merckle GmbH, priority 2003, dated 2009).

SMILES strings stand for the structures.

Test system in one series: not given
Assay: not given
Conditions: not given
One may read the melting point as the temperature, or range, at which the solid turns liquid. Compound `CCCCCCCCc1ccc(OCC(=O)Cn2cccc2)cc1` registered a melting point of 58 to 59 °C. The compound `CCCCCCCCc1ccc(OCC(=O)Cn2cc(C=O)c3cc(C(=O)O)ccc32)cc1` had a melting point of 193 °C. On to `CCCCCCCCc1ccc(OCC(=O)Cn2cc(C(C)=O)c3cc(C(=O)O)ccc32)cc1`, for which the melting point stood at 197 °C. Still for that read-out and setting: the result for `CCCCCCCCc1ccc(OCC(=O)Cn2cc(C(=O)OC)c3cc(C(=O)O)ccc32)cc1` reads 208 °C; that for `CCCCCCCCc1ccc(OCC(=O)Cn2ccc3ccccc32)cc1`, 65 °C. Same read-out and setting: the result for `CCCCCCCCc1ccc(OCC(=O)Cn2ncc3ccccc32)cc1` reads 66 to 67 °C. Take `CCCCCCCCc1ccc(OCC(=O)Cn2cccc2C(=O)O)cc1` [Example 5, 1-[3-(4-Octylphenoxy)-2-oxopropyl]pyrrol-2-carboxylic acid]: the melting point is 157 °C (dec.). For the compound `CCCCCCCCc1ccc(OCC(=O)Cn2c(C(=O)O)cc3ccccc32)cc1` [Example 7, 1-[3-(4-Octylphenoxy)-2-oxopropyl]indole-2-carboxylic acid], the melting point came to 173 °C.

`CCCCCCCCc1ccc(OCC(=O)Cn2cc(C(=O)O)c3ccccc32)cc1` [Example 8, 1-[3-(4-Octylphenoxy)-2-oxopropyl]indole-3-carboxylic acid]: the melting point fell in the range of 182 to 183 °C. Regarding `CCCCCCCCc1ccc(OCC(=O)Cn2ccc3cc(Cl)ccc32)cc1` [Example 13, 1-(5-Chloroindol-1-yl)-3-(4-octylphenoxy)propan-2-one], the melting point was 77 °C.

`CCCCCCCCc1ccc(OCC(=O)Cn2ccc3cc(OC)ccc32)cc1` [Example 14, 1-(5-Methoxyindol-1-yl)-3-(4-octylphenoxy)propan-2-one] registered a melting point of 85 °C.

For the compound `CCCCCCCCc1ccc(OCC(=O)Cn2ccc3cc(C#N)ccc32)cc1` [Example 15, 1-(3-(4-Octylphenoxy)-2-oxopropyl]indole-5-carbonitrile], the melting point worked out at 96 °C. On to `CCCCCCCCc1ccc(OCC(=O)Cn2ccc3cc(C=O)ccc32)cc1` [Example 16, 1-[3-(4-Octylphenoxy)-2-oxopropyl]indole-5-carbaldehyde], for which the melting point came to 96 °C. The same measure, in the same setting: with `CCCCCCCCc1ccc(OCC(=O)Cn2ccc3cc(C(=O)OC)ccc32)cc1` [Example 17, Methyl-1-(3-(4-octylphenoxy)-2-oxopropyl]indole-5-carboxylate] the figure was 118 °C; with `CCCCCCCCc1ccc(OCC(=O)Cn2cc(C(C)(C)C)c3cc(C(=O)O)ccc32)cc1` [Example 18, 3-tert-Butyl-1-[3-(4-octylphenoxy)-2-oxopropyl]indole-5-carboxylic acid], 146 to 147 °C. Compound `CCCCCCCCc1ccc(OCC(=O)Cn2cc(Cl)c3cc(C(=O)O)ccc32)cc1` [Example 19, 3-Chloro-1-[3-(4-octylphenoxy)-2-oxopropyl]indole-5-carboxylic acid] showed a melting point of 157 °C. The compound `CCCCCCCCc1ccc(OCC(=O)Cn2cc(C(C)(C)C)c3ccc(C(=O)O)cc32)cc1` [Example 23, 3-tert-Butyl-1-[3-(4-octylphenoxy)-2-oxopropyl]indole-6-carboxylic acid] had a melting point of 145 to 146 °C.

For `CCCCCCCOc1ccc(OCC(=O)Cn2ccc3cc(C(N)=O)ccc32)cc1` [Example 26, 1-[3-(4-Heptyloxyphenoxy)-2-oxopropyl]indole-5-carbamide], the melting point was found to be 114 °C.

On to `CCCCCCCn1ccc2cc(OCC(=O)Cn3ccc4cc(C(N)=O)ccc43)ccc21` [Example 30, 1-[3-(1-Heptylindol-5-yloxy)-2-oxopropyl]indole-5-carbamide], for which the melting point turned out to be 171 °C.

The target in another series is T1, cytosolic phospholipase A2 (Homo sapiens, UniProt P47712).
T1 construct: endogenous in cells; host or cells: intact human platelets (thrombocytes)
T1 sequence (P47712 1-749): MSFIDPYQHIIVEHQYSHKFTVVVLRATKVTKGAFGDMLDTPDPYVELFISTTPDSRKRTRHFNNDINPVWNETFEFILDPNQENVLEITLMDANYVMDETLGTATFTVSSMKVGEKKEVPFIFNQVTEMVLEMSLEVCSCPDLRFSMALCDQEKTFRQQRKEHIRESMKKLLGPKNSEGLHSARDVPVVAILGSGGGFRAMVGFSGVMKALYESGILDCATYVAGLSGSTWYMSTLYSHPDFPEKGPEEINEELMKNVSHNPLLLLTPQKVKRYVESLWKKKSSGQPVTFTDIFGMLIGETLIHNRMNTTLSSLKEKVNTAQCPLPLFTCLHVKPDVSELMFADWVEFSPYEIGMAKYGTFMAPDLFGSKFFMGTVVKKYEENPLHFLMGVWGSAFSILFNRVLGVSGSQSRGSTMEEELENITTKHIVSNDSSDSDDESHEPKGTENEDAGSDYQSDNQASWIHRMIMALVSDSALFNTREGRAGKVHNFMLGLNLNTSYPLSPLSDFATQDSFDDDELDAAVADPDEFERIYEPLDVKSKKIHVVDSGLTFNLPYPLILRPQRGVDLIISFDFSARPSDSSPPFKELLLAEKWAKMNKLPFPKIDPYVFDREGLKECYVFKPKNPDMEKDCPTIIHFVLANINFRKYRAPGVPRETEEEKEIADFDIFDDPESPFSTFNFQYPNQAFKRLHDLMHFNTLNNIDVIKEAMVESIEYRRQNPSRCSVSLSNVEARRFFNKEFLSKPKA
As to the kind of experiment: Inhibition of cytosolic phospholipase A2 in intact human platelets stimulated with calcium ionophor A23187 (arachidonic acid release, HPLC). The series is classed as cell-based. The settings on record: concentration of 10 μM, calcium ionophor A23187 stimulation, one collective range for the six compounds, read-out: inhibited the activity of cytosolic phospholipase A2. From the text:
The effectiveness of the compounds according to the invention can be determined by the inhibition of cytosolic phospholipase A2. To this end, cytosolic phospholipase A2 is stimulated in intact human thrombocytes with calcium ionophor A23187 so as to trigger the release of arachidonic acid from the membrane phospholipids. In order to prevent the metabolization of the enzyme product arachidonic acid via the cyclooxygenase route and the 12-lipoxygenase route, the dual cyclooxygenase/12-lipoxygenase-inhibitor 5,8,11,14-eicosatetraynoic acid is added. Following purification by means of solid phase extraction, the released arachidonic acid is determined by reversed phase-HPLC using U.V. detection. The inhibition of the enzyme by a test substance follows from the ratio of the arachidonic acid amounts formed in the presence or absence of the test substance. More detailed information on the test system is made in Example 10.
The effectiveness of the compounds according to the invention can be determined by the inhibition of cytosolic phospholipase A2. The test method used was described earlier (Lehr M. et al., Arch. Pharm. Pharm. Med. Chem. 2000, 333, 312-314). Here, the arachidonic acid formed by cytosolic phospholipase A2 in intact human platelets following stimulation using calcium ionophor A23187 is detected in the presence and absence of test substances.
Consider `CCCCCCCCc1ccc(OCC(=O)Cn2cccn2)cc1` [Example 2, 1-(4-Octylphenoxy)-3-(pyrazol-1-yl)propan-2-one], for which the inhibition at 10 µM was in the range of 40 to 95%. For the compound `CCCCCCCCc1ccc(OCC(=O)Cn2cccc2C(=O)O)cc1` [Example 5, 1-[3-(4-Octylphenoxy)-2-oxopropyl]pyrrol-2-carboxylic acid], the inhibition at 10 µM lay in the range of 40 to 95%.

For the compound `CCCCCCCCc1ccc(OCC(=O)Cn2ccc(C(=O)O)c2)cc1` [Example 6, 1-[3-(4-Octylphenoxy)-2-oxopropyl]pyrrole-3-carboxylic acid], the inhibition at 10 µM lay within 40 to 95%. Still for that read-out and setting: the result for `CCCCCCCCc1ccc(OCC(=O)Cn2c(C(=O)O)cc3ccccc32)cc1` [Example 7, 1-[3-(4-Octylphenoxy)-2-oxopropyl]indole-2-carboxylic acid] reads 40 to 95%; that for `CCCCCCCCc1ccc(OCC(=O)Cn2cc(C(=O)O)c3ccccc32)cc1` [Example 8, 1-[3-(4-Octylphenoxy)-2-oxopropyl]indole-3-carboxylic acid], 40 to 95%; that for `CCCCCCCCc1ccc(OCC(=O)Cn2ccc3cc(C(=O)O)ccc32)cc1` [Example 9, 1-[3-(4-Octylphenoxy)-2-oxopropyl]indole-5-carboxylic acid], 40 to 95%.
